# From patent US20050032873A1, “3-Amino chroman and 2-amino tetralin derivatives” (Wyeth, priority 2003, published 2005)
# Read-outs that look alike come from different tables or passages of the source.
# Assays:
# [1] = biological target: T1, cloned human 5-HT1A receptors (Homo sapiens, UniProt P08908); experiment: 35S-GTPγS binding assay, 5-HT1A function; format: biochemical; conditions: for EC50: agonist potency; for IC50: antagonist potency, reversal of 8-OH-DPAT, read-out: 5-HT1A Function GTPγS IC50
# T1 construct: expressed in transfected cells
# T1 sequence (P08908 1-422): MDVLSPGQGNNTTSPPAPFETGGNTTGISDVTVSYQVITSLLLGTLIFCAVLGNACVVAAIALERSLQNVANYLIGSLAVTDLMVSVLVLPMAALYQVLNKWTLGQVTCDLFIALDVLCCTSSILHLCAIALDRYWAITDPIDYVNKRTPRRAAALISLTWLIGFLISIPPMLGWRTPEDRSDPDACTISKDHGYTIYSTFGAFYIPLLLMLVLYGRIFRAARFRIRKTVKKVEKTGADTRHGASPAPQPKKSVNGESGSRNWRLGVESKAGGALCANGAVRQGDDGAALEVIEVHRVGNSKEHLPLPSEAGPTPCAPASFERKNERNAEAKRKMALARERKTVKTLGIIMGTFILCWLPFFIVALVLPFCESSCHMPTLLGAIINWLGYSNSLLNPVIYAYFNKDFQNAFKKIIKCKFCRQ
# 5-HT1A receptor = biological target: T2, 5-HT1A receptor (Homo sapiens, UniProt P08908); experiment: 5-HT1A receptor affinity: displacement of [3H] 8-OH-DPAT; format: binding; set-up: expressed in transfected cells; conditions: for inhibition at 1 µM: read-out: 5-HT1A Receptor Affinity, % @ 1 μM; for Ki: displacement of [3H] 8-OH-DPAT, CHO cells stably transfected with human 5-HT1A receptors, read-out: 5-HT1A Receptor Affinity Ki
# T2 sequence (P08908 1-422): T1 sequence (P08908 1-422)
# serotonin transporter = biological target: T3, serotonin transporter (Rattus norvegicus, UniProt P31652); experiment: 5-HT transporter affinity: displacement of 3H-paroxetine from male rat cortical membranes; format: binding; conditions: displacement of 3H-paroxetine, male rat cortical membranes
# T3 construct: displace ^3H-paroxetine from male rat cortical membranes; from tissue; host or cells: male rat cortical membranes
# [2] = maximum stimulatory effect, in brackets after EC50, read-out: 5-HT1A Function GTPγS (Emax)
# [3] = read-out: 5-HT Transporter Affinity Ki
# [4] = maximum inhibitory effect, in brackets after IC50, read-out: 5-HT1A Function GTPγS (Imax)
# T3 sequence (P31652 whole entry): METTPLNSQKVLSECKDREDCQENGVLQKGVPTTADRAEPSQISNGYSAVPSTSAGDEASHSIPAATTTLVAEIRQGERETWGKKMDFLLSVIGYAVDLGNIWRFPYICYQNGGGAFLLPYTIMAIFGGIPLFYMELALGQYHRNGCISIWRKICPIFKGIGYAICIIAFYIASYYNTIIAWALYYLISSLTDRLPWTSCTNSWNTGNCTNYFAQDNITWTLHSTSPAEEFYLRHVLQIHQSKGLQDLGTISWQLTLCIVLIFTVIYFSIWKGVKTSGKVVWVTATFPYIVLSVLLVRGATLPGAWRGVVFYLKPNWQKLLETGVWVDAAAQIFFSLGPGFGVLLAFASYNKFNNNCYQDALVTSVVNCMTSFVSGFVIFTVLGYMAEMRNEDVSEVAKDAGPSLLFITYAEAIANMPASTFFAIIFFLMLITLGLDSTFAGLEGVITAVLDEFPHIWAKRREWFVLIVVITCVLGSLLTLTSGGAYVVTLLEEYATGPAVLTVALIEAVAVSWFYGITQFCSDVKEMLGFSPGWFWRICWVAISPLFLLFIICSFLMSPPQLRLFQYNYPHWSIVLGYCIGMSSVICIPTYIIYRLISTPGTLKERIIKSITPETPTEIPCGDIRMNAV
EC50 [1] [nM],"Emax [1, 2] [%]",inhibition at 1 µM (5-HT1A receptor) [%],Ki (serotonin transporter; [3]) [nM],Ki (5-HT1A receptor) [nM],SMILES,IC50 [1] [nM],"Emax [1, 4] [%]",Ki (serotonin transporter; 5-HT Transporter Affinity Ki (nM)) [nM]
7500,38,41,5.65,–,"O=C(NC1CCCC1)c1ccc(F)c2c1CC(N(CCCc1c[nH]c3ccc(F)cc13)C1CCC1)CO2 (centres unmarked) [Compound 66, 3-{cyclobutyl[3-(5-fluoro-1H-indol-3-yl)propyl]amino}-N-cyclopentyl-8-fluorochromane-5-carboxamide]",–,–,–
–,–,44,212,–,"CCCCCN(CCCc1c[nH]c2ccc(F)cc12)C1COc2c(F)ccc(C(N)=O)c2C1 (centres unmarked) [Compound 71, 8-fluoro-3-[[3-(5-fluoro-1H-indol-3-yl)propyl](pentyl)amino]chromane-5-carboxamide]",8000,13,–
–,–,43,4.46,–,"NC(=O)c1ccc(F)c2c1CC(NCCCCc1c[nH]c3ccc(F)cc13)CO2 (centres unmarked) [Compound 79, 8-fluoro-3-{[4-(5-fluoro-1H-indol-3-yl)butyl]amino}chromane-5-carboxamide]",2660,63,–
110,62,–,1.08,21.2,"CCN(CCCc1c[nH]c2ccc(F)cc12)C1COc2c(F)ccc(C(=O)NC)c2C1 (centres unmarked) [Compound 89, 3-{ethyl[3-(5-fluoro-1H-indol-3-yl)propyl]amino}-8-fluoro-N-methylchromane-5-carboxamide]",–,–,–
1170,50,47,7.95,–,"CNC(=O)c1ccc(F)c2c1CC(NCCCCc1c[nH]c3ccc(F)cc13)CO2 (centres unmarked) [Compound 92, 8-fluoro-3-{[4-(5-fluoro-1H-indol-3-yl)butyl]amino}-N-methylchromane-5-carboxamide]",–,–,–
–,–,48,525,–,"COc1cccc2c(CCCNC3COc4c(F)ccc(C(N)=O)c4C3)c[nH]c12 (centres unmarked) [Compound 99, 8-fluoro-3-{[3-(7-methoxy-1H-indol-3-yl)propyl]amino}chromane-5-carboxamide]",4020,100,–
1100,67,–,22.5,139,"CCCN(CCCc1c[nH]c2ccc(F)cc12)C1COc2c(C(N)=O)ccc(F)c2C1 (centres unmarked) [Compound 120, 5-fluoro-3-[[3-(5-fluoro-1H-indol-3-yl)propyl](propyl)amino]chromane-8-carboxamide]",–,–,–
3820,70,–,41.8,67.7,"NC(=O)c1ccc(F)c2c1OCC(N(CCCc1c[nH]c3ccc(F)cc13)CC1CC1)C2 (centres unmarked) [Compound 121, 3-{(cyclopropylmethyl)[3-(5-fluoro-1H-indol-3-yl)propyl]amino}-5-fluorochromane-8-carboxamide]",–,–,–
698,41,48,9.9,–,"CCCN(CCCCc1c[nH]c2ccc(F)cc12)C1COc2c(C(N)=O)ccc(F)c2C1 (centres unmarked) [Compound 124, 5-fluoro-3-[[4-(5-fluoro-1H-indol-3-yl)butyl](propyl)amino]chromane-8-carboxamide]",–,–,–
608,59,47,54.5,–,"NC(=O)c1ccc(F)c2c1OCC(NCCCc1c[nH]c3c(F)cc(F)cc13)C2 (centres unmarked) [Compound 128, 3-{[3-(5,7-difluoro-1H-indol-3-yl)propyl]amino}-5-fluorochromane-8-carboxamide]",–,–,–
180,81,–,3.9,4.83,"CCNC(=O)c1cccc2c1CC(N(CCCc1c[nH]c3c(F)cc(F)cc13)C1CCC1)CO2 (centres unmarked) [Compound 139, 3-{cyclobutyl[3-(5,7-difluoro-1H-indol-3-yl)propyl]amino}-N-ethylchromane-5-carboxamide]",–,–,–
1020,65,–,3.78,39.2,"CCCNC(=O)c1cccc2c1CC(N(CCCc1c[nH]c3c(F)cc(F)cc13)C1CCC1)CO2 (centres unmarked) [Compound 140, 3-{cyclobutyl[3-(5,7-difluoro-1H-indol-3-yl)propyl]amino}-N-propylchromane-5-carboxamide]",–,–,–
122,54,–,3.88,4.03,"O=C(NC1CC1)c1cccc2c1CC(N(CCCc1c[nH]c3c(F)cc(F)cc13)C1CCC1)CO2 (centres unmarked) [Compound 142, 3-{cyclobutyl[3-(5,7-difluoro-1H-indol-3-yl)propyl]amino}-N-cyclopropylchromane-5-carboxamide]",–,–,–
–,–,30,149,–,"COc1cccc2c(CCN(C3CCC3)C3COc4c(F)ccc(C(N)=O)c4C3)coc12 (centres unmarked) [Compound 159, 3-{cyclobutyl[2-(7-methoxy-1-benzofuran-3-yl)ethyl]amino}-8-fluorochromane-5-carboxamide]",5000,25,–

# Second part, the compound before the results:
SMILES,EC50 [1] [nM],"Emax [1, 2] [%]",inhibition at 1 µM (5-HT1A receptor) [%],Ki (serotonin transporter; [3]) [nM],Ki (5-HT1A receptor) [nM],IC50 [1] [nM],"Emax [1, 4] [%]",Ki (serotonin transporter; 5-HT Transporter Affinity Ki (nM)) [nM]
"O=C(NC1CCCCC1)c1ccc(F)c2c1CC(N(CCCc1c[nH]c3ccc(F)cc13)C1CCC1)CO2 (centres unmarked) [Compound 67, 3-{cyclobutyl[3-(5-fluoro-1H-indol-3-yl)propyl]amino}-N-cyclohexyl-8-fluorochromane-5-carboxamide]",–,–,44,19.8,–,1970,76,–
"O=C(NCC1CC1)c1ccc(F)c2c1CC(N(CCCc1c[nH]c3ccc(F)cc13)C1CCC1)CO2 (centres unmarked) [Compound 68, 3-{cyclobutyl[3-(5-fluoro-1H-indol-3-yl)propyl]amino}-N-(cyclopropylmethyl)-8-fluorochromane-5-carboxamide]",–,–,–,4.4,161,1300,50,–
"O=C(Nc1ccccc1)c1ccc(F)c2c1CC(N(CCCc1c[nH]c3ccc(F)cc13)C1CCC1)CO2 (centres unmarked) [Compound 70, 3-{cyclobutyl[3-(5-fluoro-1H-indol-3-yl)propyl]amino}-8-fluoro-N-phenylchromane-5-carboxamide]",1800,22,36,37.2,–,–,–,–
"NC(=O)c1ccc(F)c2c1CC(NCCc1c[nH]c3ccc(F)cc13)CO2 (centres unmarked) [Compound 75, 8-fluoro-3-{[2-(5-fluoro-1H-indol-3-yl)ethyl]amino}chromane-5-carboxamide]",–,–,0,1030,–,2150,40,–
"CCN(CCc1c[nH]c2ccc(F)cc12)C1COc2c(F)ccc(C(=O)NC)c2C1 (centres unmarked) [Compound 85, 3-{ethyl[2-(5-fluoro-1H-indol-3-yl)ethyl]amino}-8-fluoro-N-methylchromane-5-carboxamide]",–,–,46,–,–,3580,72,35.4
"CNC(=O)c1ccc(F)c2c1CC(NCCCc1c[nH]c3ccc(F)cc13)CO2 (centres unmarked) [Compound 88, 8-fluoro-3-{[3-(5-fluoro-1H-indol-3-yl)propyl]amino}-N-methylchromane-5-carboxamide]",1780,94,–,12.2,54.6,–,–,–
"NC(=O)c1ccc(F)c2c1OCC(NCCCc1c[nH]c3ccc(F)cc13)C2 (centres unmarked) [Compound 119, 5-fluoro-3-{[3-(5-fluoro-1H-indol-3-yl)propyl]amino}chromane-8-carboxamide]",3160,100,–,14.2,36.9,–,–,–
"NC(=O)c1ccc(F)c2c1OCC(NCCCCc1c[nH]c3ccc(F)cc13)C2 (centres unmarked) [Compound 123, 5-fluoro-3-{[4-(5-fluoro-1H-indol-3-yl)butyl]amino}chromane-8-carboxamide]",2260,100,–,3.81,280,–,–,–
"NC(=O)c1cccc2c1C[C@@H](NCCCc1c[nH]c3ccc(F)cc13)CO2 [Compound 133b, (3R)-3-{[3-(5-fluoro-1H-indol-3-yl)propyl]amino}chromane-5-carboxamide]",1000,83,–,43.2,38.6,–,–,–
"CNC(=O)c1cccc2c1CC(N(CCCc1c[nH]c3c(F)cc(F)cc13)C1CCC1)CO2 (centres unmarked) [Compound 138, 3-{cyclobutyl[3-(5,7-difluoro-1H-indol-3-yl)propyl]amino}-N-methylchromane-5-carboxamide]",43,100,–,3.34,1.27,–,–,–
"CC(C)NC(=O)c1cccc2c1CC(N(CCCc1c[nH]c3c(F)cc(F)cc13)C1CCC1)CO2 (centres unmarked) [Compound 141, 3-{cyclobutyl[3-(5,7-difluoro-1H-indol-3-yl)propyl]amino}-N-isopropylchromane-5-carboxamide]",287,99,–,3.52,7.69,–,–,–
"NC(=O)c1ccc(F)c2c1CC(N(CCCCn1ccc3cccc(F)c31)CC1CC1)CO2 (centres unmarked) [Compound 191, 3-{(Cyclopropylmethyl)[4-(7-fluoro-1H-indol-1-yl)butyl]amino}-8-fluorochromane-5-carboxamide]",–,–,–,38.7,19.3,204,74,–
